Assay results reported in US9828644B2, “BACH2 repression in cells” (UNIVERSITE LIBRE DE BRUXELLES, priority 2010, dated 2017).

B1: Fas-L: FAS ligand (FASLG/TNFSF6) added to Jurkat clones to trigger apoptosis (protein, UniProt P48023 130-281, looked up)
Tumor necrosis factor ligand …: QIGHPSPPPEKKELRKVAHLTGKSNSRSMPLEWEDTYGIVLLSGVKYKKGGLVINETGLYFVYSKVYFRGQSCNNLPLSHKVYMRNSKYPQDLVMMEGKMMSYCTTGQMWARSSYLGAVFNLTSADHLYVNVSELSLVNFEESQTFFGLYKL

How the values were obtained:
[1] = test system: Fas L mRNA in CD4+ cells from a patient having a hemizigous deletion of BACH2 gene; test: Fas L mRNA abundance in CD4+ cells ex vivo in function of etoposide treatment; format: cell-based, human; conditions: CD4+ cells having lost one copy of BACH2, compared with control CD4+ cells from a healthy donor
Excerpt: This observation is further confirmed by the ex-vivo analysis shown at FIG. 8, wherein, clearly, CD4+ T cells having hemizigous BACH2 fail to express FasL mRNA.

[2] = test system: shRNA CTRL Jurkat clones (E6.1 Jurkat T cell line); test: Apoptosis assay (annexin V-FITC and PI staining, flow cytometry) in shRNA CTRL Jurkat clones; format: cell-based; conditions: for Apoptosis response % shRNACTRL: shRNA CTRL Jurkat clones
Description: (§1) The apoptosis was assessed by flow cytometry. Columns with standard deviation represent the mean percentage of 3 experiments.
(§2) Histograms of gated cells represent early and late apoptotic populations. As shown in the left panel, 42% of treated shRNA CTRL cells are in apoptosis whereas 18% of apoptotic shRNA BACH2 cells are observed after BACH2 repression
(§3) The inventors firstly added FAS ligand (FASLG/TNFSF6) or PMA (phorbol myristic acetate) (see Table 2) to control or to cells transfected with BACH2 sh RNA. They further treated control and transfected cells (with BACH2 sh RNA) by a 18-hours stimulation with anti-CD2, anti-CD28 or anti-CD3 antibodies.

[3] = test system: shRNA BACH2 Jurkat clones (E6.1 Jurkat T cell line); test: Apoptosis assay (annexin V-FITC and PI staining, flow cytometry) in shRNA BACH2 Jurkat clones; format: cell-based; conditions: for Apoptosis response % shRNABACH2: shRNA BACH2 Jurkat clones; for Apoptosis response Difference %: shRNACTRL minus shRNABACH2 Jurkat clones
Description: as §1, §2, §3

Molecule | FasL mRNA production upon etoposide exposure [1] | cells in apoptosis (early and late apoptotic populations) ([2]; clone shRNA CTRL-A, 1 μg/ml etoposide, 18 hrs) [%] | Apoptosis response % shRNACTRL [2] | reduction in the number of apoptotic cells (AnnexinV+) in the BACH2-repressed clone ([3]; clone shRNA BACH2-C versus shRNA control-A, 1 μg/ml of etoposide) | apoptotic cells (early and late apoptotic populations) ([3]; clone shRNA BACH2-C, 1 μg/ml etoposide, 18 hrs) [%] | Apoptosis response % shRNABACH2 [3] | Apoptosis response Difference % [3] [%]
COc1cc([C@@H]2c3cc4c(cc3[C@@H](O[C@@H]3O[C@@H]5CO[C@@H](C)O[C@H]5[C@H](O)[C@H]3O)[C@H]3COC(=O)[C@H]23)OCO4)cc(OC)c1O [Etoposide] | fails to produce FasL | 42 | 41.2 (+/−4.94) % | two-fold reduction | 18 | 18.27 (+/−2.71) % | 23
CCCCCCCCCCCCCC(=O)O[C@@H]1[C@@H](C)[C@@]2(O)[C@@H](C=C(CO)C[C@]3(O)C(=O)C(C)=C[C@@H]23)[C@@H]2C(C)(C)[C@]12OC(C)=O [PMA, phorbol myristic acetate] |  |  | 16.17 (+/−2.26) % |  |  | 16.7 (+/−6.12) % | −0.5
B1 |  |  | 33.18 (+/−2.32) % |  |  | 34.51 (+/−3.75) % | −1.3
